Reference: PubChem BioAssay (NCI)
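Cultured in 96-well plates, cells were exposed to test compound for 48 hours across five concentrations. At the TGI there is no net growth.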

Assays:
Assay in all cases: NCI-60 cell line screen, 48 h
786-0 renal = system: 786-0 renal
A549 NSCLC = system: A549 NSCLC
ACHN renal = system: ACHN renal
CAKI-1 renal = system: CAKI-1 renal
CCRF-CEM leukemia = system: CCRF-CEM leukemia
COLO 205 colon = system: COLO 205 colon
DLD-1 colon = system: DLD-1 colon
DMS 114 small cell lung = system: DMS 114 small cell lung
EKVX NSCLC = system: EKVX NSCLC
HCT-116 colon = system: HCT-116 colon
HCT-15 colon = system: HCT-15 colon
HL-60(TB) leukemia = system: HL-60(TB) leukemia
HOP-62 NSCLC = system: HOP-62 NSCLC
HOP-92 NSCLC = system: HOP-92 NSCLC
HT29 colon = system: HT29 colon
IGROV1 ovarian = system: IGROV1 ovarian
K-562 leukemia = system: K-562 leukemia
KM12 colon = system: KM12 colon
LOX IMVI melanoma = system: LOX IMVI melanoma
LXFL 529 NSCLC = system: LXFL 529 NSCLC
M14 melanoma = system: M14 melanoma
M19-MEL melanoma = system: M19-MEL melanoma
MALME-3M melanoma = system: MALME-3M melanoma
MOLT-4 leukemia = system: MOLT-4 leukemia
NCI-H226 lung = system: NCI-H226 lung
NCI-H23 lung = system: NCI-H23 lung
NCI-H460 lung = system: NCI-H460 lung
NCI-H522 lung = system: NCI-H522 lung
OVCAR-3 ovarian = system: OVCAR-3 ovarian
OVCAR-4 ovarian = system: OVCAR-4 ovarian
OVCAR-5 ovarian = system: OVCAR-5 ovarian
OVCAR-8 ovarian = system: OVCAR-8 ovarian
RPMI-8226 leukemia = system: RPMI-8226 leukemia
RXF 393 renal = system: RXF 393 renal
SF-268 CNS = system: SF-268 CNS
SF-295 CNS = system: SF-295 CNS
SF-539 CNS = system: SF-539 CNS
SK-MEL-2 melanoma = system: SK-MEL-2 melanoma
SK-MEL-5 melanoma = system: SK-MEL-5 melanoma
SK-OV-3 ovarian = system: SK-OV-3 ovarian
SN12C renal = system: SN12C renal
SNB-75 CNS = system: SNB-75 CNS
SNB-78 CNS = system: SNB-78 CNS
SR leukemia = system: SR leukemia
SW-620 colon = system: SW-620 colon
TK-10 renal = system: TK-10 renal
U251 CNS = system: U251 CNS
UO-31 renal = system: UO-31 renal
DMS 273 small cell lung = system: DMS 273 small cell lung
HCC-2998 colon = system: HCC-2998 colon
HOP-18 NSCLC = system: HOP-18 NSCLC
KM20L2 colon = system: KM20L2 colon
SK-MEL-28 melanoma = system: SK-MEL-28 melanoma
SNB-19 CNS = system: SNB-19 CNS
UACC-257 melanoma = system: UACC-257 melanoma
UACC-62 melanoma = system: UACC-62 melanoma
XF 498 CNS = system: XF 498 CNS

Brc1ccccc1C1SCc2nc3ccccc3n21 (stereo not drawn)
TGI (786-0 renal): 29.4 µM
TGI (A549 NSCLC): > 100 µM
TGI (ACHN renal): 81 µM
TGI (CAKI-1 renal): 61.2 µM
TGI (CCRF-CEM leukemia): > 100 µM
TGI (COLO 205 colon): 32.1 µM
TGI (DLD-1 colon): 26.7 µM
TGI (DMS 114 small cell lung): 94.4 µM
TGI (EKVX NSCLC): 45.6 µM
TGI (HCT-116 colon): 26 µM
TGI (HCT-15 colon): 25.4 µM
TGI (HL-60(TB) leukemia): 34.1 µM
TGI (HOP-62 NSCLC): 39.2 µM
TGI (HOP-92 NSCLC): 26.8 µM
TGI (HT29 colon): 60.9 µM
TGI (IGROV1 ovarian): 70.6 µM
TGI (K-562 leukemia): > 100 µM
TGI (KM12 colon): 43.4 µM
TGI (LOX IMVI melanoma): 26 µM
TGI (LXFL 529 NSCLC): 77.9 µM
TGI (M14 melanoma): 31.4 µM
TGI (M19-MEL melanoma): 34.8 µM
TGI (MALME-3M melanoma): 48 µM
TGI (MOLT-4 leukemia): > 100 µM
TGI (NCI-H226 lung): 31.6 µM
TGI (NCI-H23 lung): 33.3 µM
TGI (NCI-H460 lung): 44.5 µM
TGI (NCI-H522 lung): 33.9 µM
TGI (OVCAR-3 ovarian): 26.7 µM
TGI (OVCAR-4 ovarian): 75.9 µM
TGI (OVCAR-5 ovarian): 68 µM
TGI (OVCAR-8 ovarian): 57.1 µM
TGI (RPMI-8226 leukemia): > 100 µM
TGI (RXF 393 renal): 23.3 µM
TGI (SF-268 CNS): 66.1 µM
TGI (SF-295 CNS): 82.9 µM
TGI (SF-539 CNS): 33 µM
TGI (SK-MEL-2 melanoma): 32.5 µM
TGI (SK-MEL-5 melanoma): 18.7 µM
TGI (SK-OV-3 ovarian): 56.7 µM
TGI (SN12C renal): 25.8 µM
TGI (SNB-75 CNS): 47.1 µM
TGI (SNB-78 CNS): 83.7 µM
TGI (SR leukemia): 45.1 µM
TGI (SW-620 colon): > 100 µM
TGI (TK-10 renal): 49.3 µM
TGI (U251 CNS): 29.7 µM
TGI (UO-31 renal): 22.6 µM

CCCCCCN(CCCCCC)C(=O)Cc1c2n(c3ccccc13)Cc1ccccc1-2
TGI (786-0 renal): > 100 µM
TGI (A549 NSCLC): > 100 µM
TGI (ACHN renal): > 100 µM
TGI (CAKI-1 renal): > 100 µM
TGI (CCRF-CEM leukemia): 90.1 µM
TGI (COLO 205 colon): > 100 µM
TGI (DLD-1 colon): > 100 µM
TGI (DMS 114 small cell lung): 82 µM
TGI (DMS 273 small cell lung): > 100 µM
TGI (EKVX NSCLC): > 100 µM
TGI (HCC-2998 colon): > 100 µM
TGI (HCT-116 colon): > 100 µM
TGI (HCT-15 colon): > 100 µM
TGI (HL-60(TB) leukemia): 46.4 µM
TGI (HOP-18 NSCLC): > 100 µM
TGI (HOP-62 NSCLC): > 100 µM
TGI (HOP-92 NSCLC): 79.7 µM
TGI (HT29 colon): > 100 µM
TGI (K-562 leukemia): > 100 µM
TGI (KM12 colon): > 100 µM
TGI (KM20L2 colon): > 100 µM
TGI (LOX IMVI melanoma): > 100 µM
TGI (LXFL 529 NSCLC): > 100 µM
TGI (M14 melanoma): > 100 µM
TGI (M19-MEL melanoma): > 100 µM
TGI (MALME-3M melanoma): > 100 µM
TGI (MOLT-4 leukemia): > 100 µM
TGI (NCI-H226 lung): > 100 µM
TGI (NCI-H23 lung): > 100 µM
TGI (NCI-H460 lung): > 100 µM
TGI (NCI-H522 lung): > 100 µM
TGI (OVCAR-3 ovarian): > 100 µM
TGI (OVCAR-4 ovarian): > 100 µM
TGI (OVCAR-8 ovarian): > 100 µM
TGI (RPMI-8226 leukemia): > 100 µM
TGI (RXF 393 renal): > 100 µM
TGI (SF-268 CNS): > 100 µM
TGI (SF-295 CNS): > 100 µM
TGI (SF-539 CNS): > 100 µM
TGI (SK-MEL-2 melanoma): > 100 µM
TGI (SK-MEL-28 melanoma): > 100 µM
TGI (SK-MEL-5 melanoma): > 100 µM
TGI (SK-OV-3 ovarian): > 100 µM
TGI (SN12C renal): > 100 µM
TGI (SNB-19 CNS): > 100 µM
TGI (SNB-75 CNS): > 100 µM
TGI (SNB-78 CNS): > 100 µM
TGI (SR leukemia): > 100 µM
TGI (SW-620 colon): > 100 µM
TGI (TK-10 renal): > 100 µM
TGI (U251 CNS): > 100 µM
TGI (UACC-257 melanoma): > 100 µM
TGI (UACC-62 melanoma): > 100 µM
TGI (UO-31 renal): > 100 µM

O=c1cc(-c2ccccc2)oc2cc(OCCCOc3ccc4c(=O)cc(-c5ccccc5)oc4c3)ccc12
TGI (786-0 renal): > 100 µM
TGI (A549 NSCLC): > 100 µM
TGI (ACHN renal): > 100 µM
TGI (CAKI-1 renal): > 100 µM
TGI (CCRF-CEM leukemia): > 100 µM
TGI (COLO 205 colon): > 100 µM
TGI (DLD-1 colon): > 100 µM
TGI (DMS 114 small cell lung): > 100 µM
TGI (DMS 273 small cell lung): > 100 µM
TGI (EKVX NSCLC): > 100 µM
TGI (HCC-2998 colon): > 100 µM
TGI (HCT-116 colon): > 100 µM
TGI (HCT-15 colon): > 100 µM
TGI (HL-60(TB) leukemia): > 100 µM
TGI (HOP-18 NSCLC): > 100 µM
TGI (HOP-62 NSCLC): > 100 µM
TGI (HOP-92 NSCLC): > 100 µM
TGI (HT29 colon): > 100 µM
TGI (IGROV1 ovarian): > 100 µM
TGI (K-562 leukemia): > 100 µM
TGI (KM12 colon): > 100 µM
TGI (KM20L2 colon): > 100 µM
TGI (LOX IMVI melanoma): > 100 µM
TGI (LXFL 529 NSCLC): > 100 µM
TGI (M14 melanoma): > 100 µM
TGI (M19-MEL melanoma): > 100 µM
TGI (MALME-3M melanoma): > 100 µM
TGI (MOLT-4 leukemia): > 100 µM
TGI (NCI-H226 lung): > 100 µM
TGI (NCI-H23 lung): > 100 µM
TGI (NCI-H460 lung): > 100 µM
TGI (NCI-H522 lung): > 100 µM
TGI (OVCAR-3 ovarian): > 100 µM
TGI (OVCAR-4 ovarian): > 100 µM
TGI (OVCAR-5 ovarian): > 100 µM
TGI (OVCAR-8 ovarian): > 100 µM
TGI (RPMI-8226 leukemia): > 100 µM
TGI (RXF 393 renal): > 100 µM
TGI (SF-295 CNS): > 100 µM
TGI (SF-539 CNS): > 100 µM
TGI (SK-MEL-2 melanoma): > 100 µM
TGI (SK-MEL-28 melanoma): > 100 µM
TGI (SK-MEL-5 melanoma): > 100 µM
TGI (SK-OV-3 ovarian): > 100 µM
TGI (SN12C renal): > 100 µM
TGI (SNB-19 CNS): > 100 µM
TGI (SNB-75 CNS): > 100 µM
TGI (SNB-78 CNS): > 100 µM
TGI (SR leukemia): > 100 µM
TGI (SW-620 colon): > 100 µM
TGI (TK-10 renal): > 100 µM
TGI (U251 CNS): > 100 µM
TGI (UACC-257 melanoma): > 100 µM
TGI (UACC-62 melanoma): > 100 µM
TGI (XF 498 CNS): > 100 µM

Clc1ccc(C(c2ccc(Cl)cc2)c2ccccn2)cc1
TGI (786-0 renal): 30.6 µM
TGI (A549 NSCLC): 38.6 µM
TGI (ACHN renal): 45.9 µM
TGI (CAKI-1 renal): 56.8 µM
TGI (CCRF-CEM leukemia): 48.1 µM
TGI (DLD-1 colon): 83.5 µM
TGI (DMS 114 small cell lung): > 100 µM
TGI (EKVX NSCLC): 52.5 µM
TGI (HCC-2998 colon): 30.9 µM
TGI (HCT-15 colon): 38 µM
TGI (HL-60(TB) leukemia): 55.8 µM
TGI (HOP-18 NSCLC): 46.6 µM
TGI (HOP-92 NSCLC): 30.1 µM
TGI (HT29 colon): 30.8 µM
TGI (IGROV1 ovarian): > 100 µM
TGI (K-562 leukemia): 55.6 µM
TGI (KM12 colon): 42.5 µM
TGI (KM20L2 colon): 29.8 µM
TGI (LOX IMVI melanoma): 30.4 µM
TGI (LXFL 529 NSCLC): 35.3 µM
TGI (M14 melanoma): 38 µM
TGI (M19-MEL melanoma): > 100 µM
TGI (MALME-3M melanoma): 41.2 µM
TGI (MOLT-4 leukemia): 56.6 µM
TGI (NCI-H226 lung): 31.9 µM
TGI (NCI-H23 lung): > 100 µM
TGI (NCI-H460 lung): 34.2 µM
TGI (NCI-H522 lung): 48.6 µM
TGI (OVCAR-4 ovarian): 70.2 µM
TGI (OVCAR-5 ovarian): 29.5 µM
TGI (OVCAR-8 ovarian): 33.8 µM
TGI (RPMI-8226 leukemia): 84.5 µM
TGI (RXF 393 renal): 28.2 µM
TGI (SF-268 CNS): 69.7 µM
TGI (SF-295 CNS): 43.4 µM
TGI (SF-539 CNS): 33.7 µM
TGI (SK-MEL-2 melanoma): 35 µM
TGI (SK-MEL-5 melanoma): 33 µM
TGI (SK-OV-3 ovarian): 86.5 µM
TGI (SN12C renal): 31.7 µM
TGI (SNB-19 CNS): 51.5 µM
TGI (SNB-75 CNS): > 100 µM
TGI (SNB-78 CNS): > 100 µM
TGI (SR leukemia): 49.8 µM
TGI (SW-620 colon): 44 µM
TGI (TK-10 renal): 45.3 µM
TGI (U251 CNS): 30.9 µM
TGI (UACC-257 melanoma): 37.9 µM
TGI (UACC-62 melanoma): 33.4 µM
TGI (UO-31 renal): 30.5 µM
TGI (XF 498 CNS): 34.8 µM
